# From patent US7259004B1, “Endophytic streptomycetes from higher plants with biological activity” (Montana State University, priority 2002, dated 2007)
# How the values were obtained:
# [1] = test system: Enterococcus faecium ATCC 51559; assay: disk diffusion assay; format: cell-based; settings: 10 micrograms per disk; ciprofloxacin 5, vancomycin 30 micrograms per disk; 35° C.
# [2] = test system: Enterococcus faecalis ATCC 51299; assay: disk diffusion assay; format: cell-based; settings: for Disk Diffusion, Enterococcus faccalis (VRE) 51299: kakadumycin B at 10 μg, control antibiotic, MHA 35° C.
# [3] = test system: Enterococcus faecium ATCC 49624; assay: disk diffusion assay; format: cell-based; settings: for diameter of the zone of inhibition, Enterococcus faecium ATCC 49624: 10 micrograms per disk, ciprofloxacin 5, vancomycin 30 micrograms per disk, 35° C.
# [4] = test system: DNA synthesis in Bacillus subtilis; assay: macromolecular synthesis whole cell assay, [3H]thymidine incorporation; format: cell-based; settings: 1×MIC
# [5] = test system: Streptococcus pneumoniae ATCC 49619; assay: disk diffusion assay; format: cell-based; settings: for Disk Diffusion, Streptococcus pneumoniae 49619: kakadumycin B at 10 μg, control antibiotic, MHA w/5% dsb 35° C. w/5% CO2
# [6] = test system: Acinetobacter sp. ATCC 49137; assay: disk diffusion assay; format: cell-based; settings: for Disk Diffusion, Acinetobacter spp. 49137: kakadumycin B at 10 μg, control antibiotic, MHA 35° C.
# [7] = test system: Shigella dysenteriae ATCC 11835; assay: disk diffusion assay; format: cell-based; settings: kakadumycin B at 10 μg; control antibiotic; MHA 35° C.
# [8] = test system: Pseudomonas aeruginosa ATCC 27853; assay: disk diffusion assay; format: cell-based; settings: kakadumycin B at 10 μg; control antibiotic; MHA 35° C.
# Bacillus anthracis K8902 = format: cell-based; settings: 10 micrograms per disk; ciprofloxacin 5, vancomycin 30 micrograms per disk; 35° C.
# [9] = test system: Klebsiella pneumoniae ATCC 10031; assay: disk diffusion assay; settings: MHA 35° C.
# [10] = test system: Burkholderia cepacia ATCC 25416; assay: disk diffusion assay; settings: kakadumycin B at 10 μg; control antibiotic; MHA 35° C.
# [11] = test system: Staphylococcus aureus (MRSA) ATCC 33591; assay: disk diffusion assay; settings: MHA 35° C.
# [12] = test system: Listeria monocytogenes 19114; assay: microbroth dilution MIC; format: cell-based; settings: Listeria monocytogenes, ATCC19114; Table 15; read-out: MIC Listeria monocytogenes ATCC 19114
# S. aureus ATCC 6583P = assay: MIC with and without double stranded DNA; format: cell-based, Staphylococcus aureus; settings: Staphylococcus aureus, ATCC6583P, read-out: MIC S. aureus ATCC 6583P
# [13] = test system: Staphylococcus aureus ATCC 29213; assay: disk diffusion assay; format: cell-based
# [14] = test system: Staphylococccus simulans 11631; assay: microbroth dilution MIC; format: cell-based, Staphylococcus simulans; settings: Staphylococcus simulans, ATCC11631; Table 15; read-out: MIC Staphylococcus simulans ATCC 11631
# E. faecium 49624 = assay: microbroth dilution MIC; format: cell-based, Enterococcus faecium; settings: Enterococcus faecium, ATCC49624; Table 15; read-out: MIC Enterococcus faecium ATCC 49624
# [15] = test system: Streptococcus pneumoniae ATCC 70674; assay: microbroth dilution MIC; format: cell-based; settings: ATCC70674, read-out: MIC Streptococcus pneumoniae ATCC 70674
# [16] = test system: Staphylococcus aureus GISA, ATCC 700787; assay: microbroth dilution MIC; format: cell-based; settings: ATCC700787, read-out: MIC Staphylococcus aureus GISA, ATCC 700787
# S. aureus 29213 = assay: microbroth dilution MIC; format: cell-based, Staphylococcus aureus; settings: Staphylococcus aureus, ATCC29213; Table 15; read-out: MIC Staphylococcus aureus ATCC 29213
# [17] = test system: Streptococcus pneumoniae 49619; assay: microbroth dilution MIC; format: cell-based; settings: Streptococcus pneumoniae, ATCC49619; Table 15; read-out: MIC Streptococcus pneumoniae ATCC 49619
# S. epidermis 12228 = assay: microbroth dilution MIC; format: cell-based, Staphylococcus epidermidis; settings: Staphylococcus epidermidis, ATCC12228; Table 15; read-out: MIC Staphylococcus epidermidis ATCC 12228
# [18] = test system: Cell wall synthesis in Bacillus subtilis; assay: macromolecular synthesis whole cell assay, [3H]N-acetyl glucosamine incorporation; format: cell-based; settings: 1×MIC
# [19] = test system: Enterococcus faecalis ATCC 29212; assay: disk diffusion assay; format: cell-based
# [20] = test system: Shigella dysenteriae ATCC 11835; assay: microbroth dilution MIC; format: cell-based; settings: ATCC11835, read-out: MIC Shigella dysenteriae ATCC 11835
# [21] = test system: Staphyloccus aureus MH II Eli Lilly Co.; assay: microbroth dilution MIC; settings: Staphylococcus aureus, read-out: MIC Staphyloccus aureus MH II Eli Lilly Co.
# B. subtilis 1A757 = assay: microbe, parasite or virus in culture; format: cell-based, Bacillus subtilis
# [22] = test system: Staphylococcus aureus ATCC 33591 (MRSA); assay: microbroth dilution MIC; format: cell-based; settings: Staphylococcus aureus; Table 15
# [23] = test system: Staphylococccus aureus 27734; assay: microbroth dilution MIC; format: cell-based, Staphylococcus aureus; settings: Staphylococcus aureus, ATCC27734; Table 15; read-out: MIC Staphylococcus aureus ATCC 27734
# [24] = test system: Listeria monocytogenes 19115; assay: microbroth dilution MIC; format: cell-based; settings: Listeria monocytogenes, ATCC19115; Table 15; read-out: MIC Listeria monocytogenes ATCC 19115
# [25] = test system: Streptococcus pneumoniae ATCC 70676; assay: microbroth dilution MIC; format: cell-based; settings: ATCC70676, read-out: MIC Streptococcus pneumoniae ATCC 70676
# [26] = test system: Neisseria gonnorhea ATCC 49226; assay: disk diffusion assay; format: cell-based; settings: 10 micrograms per disk; ciprofloxacin 5, vancomycin 30 micrograms per disk; GC agar with 1% growth supplement with 5% CO2
# [27] = test system: Escherichia coli ATCC 25922; assay: disk diffusion assay; format: cell-based; settings: kakadumycin B at 10 μg; control antibiotic; MHA 35° C.
# [28] = test system: Salmonella typhimurium ATCC 13311; assay: disk diffusion assay; settings: kakadumycin B at 10 μg; control antibiotic; MHA 35° C.
# S. epidermis ATCC 12228 = assay: disk diffusion assay; format: cell-based, Staphylococcus epidermidis; settings: kakadumycin B at 10 μg; control antibiotic; MHA 35° C.
# [29] = test system: Staphylococcus aureus (GISA) ATCC 700699; assay: disk diffusion assay; settings: kakadumycin B at 10 μg; control antibiotic; MHA 35° C.
# [30] = test system: Human Primary Mammary Epithelial HMEC; assay: CellTiter 96 Aqueous Non-Radioactive Cell Proliferation Assay; format: cell-based
# Procedure: (§1) The munumbicins were then tested against three human cancer cell lines (ATCC) and human primary mammary epithelial cells (HMECs) (Clonetics; Biowhittaker, Walkersville, Md.) using a CellTiter 96® Aqueous Non-Radioactive Cell Proliferation Assay kit from Promega (Madison, Wis.). The cell lines were A-549 (lung epithelial carcinoma, ATCC CCL-185), ME-180 (cervical epithelial epidermoid carcinoma, ATCC HTB-33), and BT-20 (breast epithelial cancer, ATCC HTB-19), and were grown in the media recommended by ATCC. The primary mammary cells were cultured as recommended by the manufacturer in mammary epithelial cell growth media (MEGM®). […] After seeding, the cells were incubated for five hours at 37° C. before addition of the munumbicins. Two-fold serial dilutions of the munumbicins were made in the culture medium, and a volume equal to that of the seeded cells for each dilution was added to three wells of cells. Each plate also contained some wells with cells plus medium only and some wells with medium only. […] The A-549 and ME-180 cells were incubated for 48 hours. […] The plates were incubated at 37° C. for one to four hours, and the OD490 was determined. The OD reading of all wells was corrected for background by subtracting the reading of wells containing medium only. […] Kakadumycin A was tested against three human cancer cell lines (ATCC) and human primary mammary epithelial cells using the procedure described above for the munumbicins. Kadadumycin B was tested against one human cancer cell line.
# [31] = test system: Human Breast Cancer Epithelial BT-20; assay: as above; format: cell-based; settings: text of Examples 15, 18, 19
# Procedure: as §1
# [32] = test system: Micrococcus luteus ATCC 9341; assay: disk diffusion assay; settings: kakadumycin B at 10 μg; control antibiotic; MHA 35° C.
# [33] = test system: S. maltophilia ATCC 13637; assay: disk diffusion assay; format: cell-based, Stenotrophomas maltophilia; settings: kakadumycin B at 10 μg; control antibiotic; MHA 35° C.
# [34] = 10 micrograms per disk, ciprofloxacin 5, vancomycin 30 micrograms per disk, 35° C.
# [35] = A3-5-1 10 micrograms, Cip 5 micrograms
# [36] = kakadumycin B at 10 μg, control antibiotic
# [37] = kakadumycin B at 10 μg, control antibiotic, MHA 35° C.
compound,measurement,setting,value
"O=C(O)c1cn(C2CC2)c2cc(N3CCNCC3)c(F)cc2c1=O [Ciprofloxacin, reference compound]","diameter of the zone of inhibition, Enterococcus faecium ATCC 51559",[1],13 mm
same,"diameter of the zone of inhibition, Enterococcus faecalis ATCC 51299",[2]; [34],22 mm
same,"Disk Diffusion, Enterococcus faccalis (VRE) 51299",[2],23 mm (cipro)
same,"diameter of the zone of inhibition, Enterococcus faecium ATCC 49624",[3],15 mm
same,% [3H]thymidine (DNA synthesis) incorporation of that of the untreated culture,[4]; 5 min,36%
same,% [3H]thymidine (DNA synthesis) incorporation of that of the untreated culture,[4]; 10 min,35%
same,"Disk Diffusion, Streptococcus pneumoniae 49619",[5],24 mm (cipro)
same,"diameter of the zone of inhibition, Acinetobacter sp. ATCC 49137","[6]; 10 micrograms per disk, ciprofloxacin 5, vancomycin 30 micrograms per disk, grown at 30° C.",29 mm
same,"Disk Diffusion, Acinetobacter spp. 49137",[6],26 mm (cipro)
same,"Disk Diffusion, Shigella dysenteriae 11835",[7],24 mm (cipro)
same,"Disk Diffusion, Pseudomonas aeruginosa 27853",[8],30 mm (cipro)
same,"diameter of the zone of inhibition, Bacillus anthracis K8902",Bacillus anthracis K8902,16 mm
same,"Disk Diffusion, Klebsiella pneumoniae 10031",[9]; [35],Cip (5 micro-)-34 mm
same,"Disk Diffusion, Klebsiella pneumoniae 10031",[9]; [36],32 mm (cipro)
same,"Disk Diffusion, Burkholderia cepacia 25416",[10],24 mm (cipro)
same,"Disk Diffusion, Staphylococcus aureus (MRSA) 33591",[11]; [35],Cip (5 micro-)-26 mm
same,"Disk Diffusion, Staphylococcus aureus (MRSA) 33591",[11]; [36],27 mm (cipro)
"CN[C@H](CC(C)C)C(=O)N[C@H]1C(=O)N[C@@H](CC(N)=O)C(=O)N[C@H]2C(=O)N[C@H]3C(=O)N[C@H](C(=O)N[C@H](C(=O)O)c4cc(O)cc(O)c4-c4cc3ccc4O)[C@H](O)c3ccc(c(Cl)c3)Oc3cc2cc(c3O[C@@H]2O[C@H](CO)[C@@H](O)[C@H](O)[C@H]2O[C@H]2C[C@](C)(N)[C@H](O)[C@H](C)O2)Oc2ccc(cc2Cl)[C@H]1O [Vancomycin, reference compound]",MIC,[12],1 µg/mL
same,"diameter of the zone of inhibition, Enterococcus faecium ATCC 51559",[1],0 mm
same,"diameter of the zone of inhibition, Enterococcus faecium ATCC 49624",[3],22 mm
same,MIC,S. aureus ATCC 6583P,0.5 µg/mL
same,"diameter of the zone of inhibition, Staphylococcus aureus ATCC 29213",[13]; [34],15 mm
same,MIC,[14],1 µg/mL
same,"diameter of the zone of inhibition, Streptococcus pneumoniae ATCC 49619","[5]; 10 micrograms per disk, ciprofloxacin 5, vancomycin 30 micrograms per disk, MHA with 5% dsb. and 5% CO2",20 mm
same,MIC,E. faecium 49624,0.5 µg/mL
same,MIC,[15],0.25 µg/mL
same,MIC,[16],8 µg/mL
same,MIC,S. aureus 29213,1 µg/mL
same,MIC,[17],0.125 µg/mL
same,MIC,S. epidermis 12228,1 µg/mL
same,% [3H]N-acetyl glucosamine (Cell wall synthesis) incorporation of that of the untreated culture,[18]; 5 min,33%
same,% [3H]N-acetyl glucosamine (Cell wall synthesis) incorporation of that of the untreated culture,[18]; 10 min,41%
same,"diameter of the zone of inhibition, Enterococcus faecalis ATCC 29212",[19]; [34],18 mm
same,MIC,[20],2 µg/mL
same,MIC,[21],0.06 µg/mL
same,1×MIC against Bacillus subtilis,B. subtilis 1A757,0.25 micrograms/ml
same,increase of MICs when DNA was added,B. subtilis 1A757,not affected
same,MIC,"B. subtilis 1A757; Bacillus subtilis, 1A757, read-out: MIC B. subtilis 1A757",0.125 µg/mL
same,MIC,[22],2 µg/mL
same,MIC,[23],1 µg/mL
same,MIC,[24],1 µg/mL
same,MIC,[25],0.25 µg/mL
same,"diameter of the zone of inhibition, Neisseria gonnorhea ATCC 49226",[26],13 mm
kakadumycin B,"Disk Diffusion, Enterococcus faccalis (VRE) 51299",[2],21 mm
same,"Disk Diffusion, Escherichia coli 25922",[27],8 mm
same,"Disk Diffusion, Enterococcus faecium 49624",[3]; [37],22 mm
same,"Disk Diffusion, Salmonella typhimurium 13311",[28],R
same,"Disk Diffusion, Staphylococcus aureus 29213",[13]; [37],17 mm
same,"Disk Diffusion, Staphylococcus epidermidis 12228",S. epidermis ATCC 12228,23 mm
same,"Disk Diffusion, Streptococcus pneumoniae 49619",[5],22 mm
same,"Disk Diffusion, Acinetobacter spp. 49137",[6],11 mm
same,"Disk Diffusion, Staphylococcus aureus (GISA) 700699",[29],22 mm
same,"Disk Diffusion, Enterococcus faecalis 29212",[19]; [37],20 mm
same,"Disk Diffusion, Shigella dysenteriae 11835",[7],10 mm
same,"Disk Diffusion, Pseudomonas aeruginosa 27853",[8],R
same,"IC50 cytotoxicity, human mammary epithelial cells",[30],10.5±1.4 nanograms/ml
same,IC50 human breast cancer cell line BT 20,[31],0.008 µg/mL
same,concentration causing detectable lysis of human red blood cells,human red blood cells,> 80 micrograms/ml
same,"Disk Diffusion, Klebsiella pneumoniae 10031",[9]; [36],R
same,"Disk Diffusion, Micrococcus luteus 9341",[32],28 mm
same,"Disk Diffusion, Burkholderia cepacia 25416",[10],R
same,"Disk Diffusion, Stenotrophomas maltophilia 13637",[33],13 mm
same,"Disk Diffusion, Staphylococcus aureus (MRSA) 33591",[11]; [36],22 mm
